SMILES strings stand for the structures.

This note sets out measurements from patent US6358943B1, “N-substituted indolines as estrogenic agents” (American Home Products Corporation, priority 1999, dated 2002).

The target in this test is T1, estrogen receptor (ER) (Homo sapiens, UniProt P03372).
T1 construct: expressed in transfected cells; host or cells: CHO cells (cytosol)
T1 sequence (P03372 1-595): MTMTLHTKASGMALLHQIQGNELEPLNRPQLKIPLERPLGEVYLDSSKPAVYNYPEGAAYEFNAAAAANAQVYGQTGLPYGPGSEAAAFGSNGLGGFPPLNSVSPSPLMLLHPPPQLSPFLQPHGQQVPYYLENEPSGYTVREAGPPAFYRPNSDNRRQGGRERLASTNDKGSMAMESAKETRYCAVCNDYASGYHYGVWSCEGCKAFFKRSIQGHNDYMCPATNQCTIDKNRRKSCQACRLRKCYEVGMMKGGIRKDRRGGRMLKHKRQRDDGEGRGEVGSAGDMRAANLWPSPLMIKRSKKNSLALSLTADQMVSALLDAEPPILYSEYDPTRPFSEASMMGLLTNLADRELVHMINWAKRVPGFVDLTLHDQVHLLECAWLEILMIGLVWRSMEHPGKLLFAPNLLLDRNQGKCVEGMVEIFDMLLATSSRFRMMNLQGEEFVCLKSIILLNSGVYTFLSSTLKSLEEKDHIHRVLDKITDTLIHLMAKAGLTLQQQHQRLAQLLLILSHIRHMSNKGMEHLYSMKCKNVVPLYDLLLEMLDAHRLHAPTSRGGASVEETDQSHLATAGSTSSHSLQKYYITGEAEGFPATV
Briefly: Receptor Binding Assay: competition with [3H]17β-estradiol, cytosol of CHO cells overexpressing the estrogen receptor. The note with it: 0.8 nM [3H]17β-estradiol, 12 competitor concentrations, room temperature 2.5 h, CHO cell cytosol.

The molecule `CC1(C)c2cc(O)ccc2N(Cc2ccc(OCCN3CCCCCC3)cc2)C1c1ccc(O)cc1` (stereo not shown) [Example No. 11, 1-[4-(2-Azepan-1-yl-ethoxy)-benzyl]-2-(4-hydroxy-phenyl)-3,3-dimethyl-2,3-dihydro-1H-indol-5-ol] displayed a half-inhibitory concentration (IC50) of 350 nM.
